Source: ChEMBL document CHEMBL3616368, “Induction of apoptosis by genipin inhibits cell proliferation in AGS human gastric cancer cells via Egr1/p21 signaling pathway” (Bioorg Med Chem Lett, 2015)
The source made the active and inactive calls. No cut-off for these calls is given here.

Key:
[1] = target: Early growth response protein 1 (Homo sapiens) (UniProt P18146); assay: Activation of Egr1 in human AGS cells assessed as increase in interaction with p21 promoter by ChIP assay; format: cell-based
Sequence of Early growth response protein 1 (Homo sapiens) (P18146 whole entry, looked up): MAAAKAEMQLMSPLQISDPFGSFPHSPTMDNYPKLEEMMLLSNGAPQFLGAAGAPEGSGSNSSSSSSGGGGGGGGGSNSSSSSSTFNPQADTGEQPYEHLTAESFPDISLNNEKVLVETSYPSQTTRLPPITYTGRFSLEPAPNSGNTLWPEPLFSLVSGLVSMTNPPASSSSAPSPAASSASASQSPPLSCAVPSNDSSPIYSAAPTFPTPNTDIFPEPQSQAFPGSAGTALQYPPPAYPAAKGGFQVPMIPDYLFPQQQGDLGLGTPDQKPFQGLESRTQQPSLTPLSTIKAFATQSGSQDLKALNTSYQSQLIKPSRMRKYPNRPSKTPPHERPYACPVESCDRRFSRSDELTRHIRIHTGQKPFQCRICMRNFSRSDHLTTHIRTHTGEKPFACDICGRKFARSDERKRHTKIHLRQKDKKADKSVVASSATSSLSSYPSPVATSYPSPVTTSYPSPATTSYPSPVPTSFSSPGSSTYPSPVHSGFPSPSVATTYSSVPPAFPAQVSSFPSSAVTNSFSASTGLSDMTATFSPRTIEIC

[2] = tested on: AGS; assay: Cell cycle arrest in human AGS cells assessed as accumulation at G0/G1 phase at 100 uM after 6 hrs by propidium iodide staining-based flow cytometric analysis (reference value: 52.82 +/- 2.87%); format: functional
[3] = target: Early growth response protein 1 (Homo sapiens) (UniProt P18146); assay: Activation of Egr1 in human AGS cells assessed as increase in interaction with p21 promoter by dual luciferase reporter gene assay; format: cell-based
[4] = tested on: AGS; assay: Cell cycle arrest in human AGS cells assessed as accumulation at G0/G1 phase at 25 uM after 6 hrs by propidium iodide staining-based flow cytometric analysis (reference value: 52.82 +/- 2.87%); format: functional
[5] = tested on: AGS; assay: Cytotoxicity against human AGS cells transfected with p21-pcDNA3 assessed as cell viability at 12.5 to 100 uM after 6 hrs by MTT assay relative to control; format: functional, cell-based
[6] = target: Early growth response protein 1 (Homo sapiens) (UniProt P18146); assay: Activation of Egr1 in human AGS cells assessed as upregulation of p21 expression at 50 to 100 uM by Western blot analysis in presence of si-Egr1; format: cell-based
[7] = tested on: AGS; assay: Cell cycle arrest in human AGS cells assessed as accumulation at G2/M phase at 50 uM after 6 hrs by propidium iodide staining-based flow cytometric analysis (reference value: 23.05 +/- 3.15%); format: functional
[8] = tested on: AGS; assay: Cell cycle arrest in human AGS cells assessed as accumulation at G0/G1 phase at 12.5 uM after 6 hrs by propidium iodide staining-based flow cytometric analysis (reference value: 52.82 +/- 2.87%); format: functional
[9] = target: Early growth response protein 1 (Homo sapiens) (UniProt P18146); assay: Activation of Egr1 in human AGS cells assessed as upregulation of p21 mRNA expression by RT-qPCR analysis; format: cell-based
[10] = target: Early growth response protein 1 (Homo sapiens) (UniProt P18146); assay: Activation of Egr1 in human AGS cells assessed as increase in cleaved caspase-9 level at 100 uM by Western blot analysis; format: cell-based
[11] = target: Early growth response protein 1 (Homo sapiens) (UniProt P18146); assay: Activation of Egr1 in human AGS cells assessed as increase in cleaved caspase-3 level at 100 uM by Western blot analysis in presence of caspase-3 inhibitor Ac-DEVD-CHO; format: cell-based
[12] = target: Early growth response protein 1 (Homo sapiens) (UniProt P18146); assay: Activation of Egr1 in human AGS cells assessed as downregulation of cyclin A expression at 12.5 to 100 uM by Western blot analysis; format: cell-based
[13] = tested on: AGS; assay: Cell cycle arrest in human AGS cells assessed as accumulation at S phase at 50 uM after 6 hrs by propidium iodide staining-based flow cytometric analysis (reference value: 21.40 +/- 2.87%); format: functional
[14] = tested on: HEK293; assay: Induction of apoptosis in HEK293 cells assessed as increase in cleaved PARP level at 100 uM by Western blot analysis; format: cell-based; conditions: human, hek293, 100 µM
[15] = tested on: HEK293; assay: Cytotoxicity against HEK293 cells assessed as reduction in cell viability at 12.5 to 100 uM after 6 hrs by MTT assay; format: cell-based; conditions: human, hek293, 6 h
[16] = tested on: AGS; assay: Cell cycle arrest in human AGS cells assessed as accumulation at G2/M phase at 12.5 uM after 6 hrs by propidium iodide staining-based flow cytometric analysis (reference value: 23.05 +/- 3.15%); format: functional
[17] = target: Early growth response protein 1 (Homo sapiens) (UniProt P18146); assay: Activation of Egr1 in human AGS cells assessed as increase in cleaved caspase-3 level at 50 to 100 uM by Western blot analysis in presence of si-Egr1; format: cell-based
[18] = tested on: AGS; assay: Cell cycle arrest in human AGS cells assessed as accumulation at G2/M phase at 100 uM after 6 hrs by propidium iodide staining-based flow cytometric analysis (reference value: 23.05 +/- 3.15%); format: functional
[19] = tested on: AGS; assay: Cell cycle arrest in human AGS cells assessed as accumulation at G2/M phase after 6 hrs by propidium iodide staining-based flow cytometric analysis; format: functional
[20] = tested on: AGS; assay: Cell cycle arrest in human AGS cells assessed as accumulation at S phase at 100 uM after 6 hrs by propidium iodide staining-based flow cytometric analysis (reference value: 21.40 +/- 2.87%); format: functional
[21] = tested on: AGS; assay: Cell cycle arrest in human AGS cells assessed as accumulation at G2/M phase at 25 uM after 6 hrs by propidium iodide staining-based flow cytometric analysis (reference value: 23.05 +/- 3.15%); format: functional
[22] = target: Early growth response protein 1 (Homo sapiens) (UniProt P18146); assay: Activation of Egr1 in human AGS cells assessed as increase in cleaved caspase-7 level at 100 uM by Western blot analysis; format: cell-based
[23] = target: Early growth response protein 1 (Homo sapiens) (UniProt P18146); assay: Activation of Egr1 in human AGS cells assessed as upregulation of protein expression at 50 to 100 uM by Western blot analysis in presence of si-Egr1; format: cell-based
[24] = target: Early growth response protein 1 (Homo sapiens) (UniProt P18146); assay: Activation of Egr1 in human AGS cells assessed as induction of p21 promoter activity at 12.5 to 100 uM by dual luciferase reporter gene assay in presence of si-Egr1; format: cell-based
[25] = tested on: AGS; assay: Upregulation of Egr1 mRNA expression in human AGS cells at 50 to 100 uM by RT-qPCR analysis in presence of si-Egr1 relative to control; format: functional, cell-based
[26] = target: Early growth response protein 1 (Homo sapiens) (UniProt P18146); assay: Activation of Egr1 in human AGS cells assessed as upregulation of protein expression by Western blot analysis; format: cell-based
[27] = target: Early growth response protein 1 (Homo sapiens) (UniProt P18146); assay: Activation of Egr1 in human AGS cells transfected with p21-pcDNA3 assessed as increase in cleaved PARP level at 50 to 100 uM by Western blot analysis; format: cell-based
[28] = target: Early growth response protein 1 (Homo sapiens) (UniProt P18146); assay: Activation of Egr1 in human AGS cells assessed as upregulation of p21 expression by Western blot analysis; format: cell-based
[29] = target: Early growth response protein 1 (Homo sapiens) (UniProt P18146); assay: Activation of Egr1 in human AGS cells assessed as upregulation of protein expression after 6 hrs by DAPI staining-based fluorescence microscopic analysis; format: cell-based
[30] = target: Early growth response protein 1 (Homo sapiens) (UniProt P18146); assay: Activation of Egr1 in human AGS cells transfected with p21-pcDNA3 assessed as increase in intracellular accumulation of reactive oxygen species at 100 uM by H2DCFDA probe-based flow cytometric analysis relative to control; format: cell-based
[31] = target: Early growth response protein 1 (Homo sapiens) (UniProt P18146); assay: Activation of Egr1 in human AGS cells assessed as increase in loss of mitochondrial membrane potential after 6 hrs by Rh-123 staining-based flow cytometric analysis relative to control; format: cell-based
[32] = tested on: AGS; assay: Cytotoxicity against human AGS cells assessed as cell viability at 100 uM after 6 hrs by MTT assay in presence of caspase-3 inhibitor Ac-DEVD-CHO; format: functional, cell-based
[33] = target: Early growth response protein 1 (Homo sapiens) (UniProt P18146); assay: Activation of Egr1 in human AGS cells assessed as downregulation of cyclin E expression at 12.5 to 100 uM by Western blot analysis; format: cell-based
[34] = tested on: HEK293; assay: Induction of apoptosis in HEK293 cells assessed as increase in cleaved caspase-3 level at 100 uM by Western blot analysis; format: cell-based; conditions: human, hek293, 100 µM
[35] = tested on: HEK293; assay: Induction of apoptosis in HEK293 cells assessed as increase in cleaved caspase-7 level at 100 uM by Western blot analysis; format: cell-based; conditions: human, hek293, 100 µM
[36] = target: Early growth response protein 1 (Homo sapiens) (UniProt P18146); assay: Activation of Egr1 in human AGS cells assessed as induction of p21 promoter activity by dual luciferase reporter gene assay; format: cell-based
[37] = target: Early growth response protein 1 (Homo sapiens) (UniProt P18146); assay: Activation of Egr1 in human AGS cells assessed as increase in cleaved PARP level at 100 uM by Western blot analysis; format: cell-based
[38] = target: Early growth response protein 1 (Homo sapiens) (UniProt P18146); assay: Activation of Egr1 in human AGS cells assessed as upregulation of p21 mRNA expression at 50 to 100 uM by RT-qPCR analysis in presence of si-Egr1 relative to control; format: cell-based
[39] = tested on: HEK293; assay: Induction of apoptosis in HEK293 cells assessed as increase in cleaved caspase-9 level at 100 uM by Western blot analysis; format: cell-based; conditions: human, hek293, 100 µM
[40] = target: Early growth response protein 1 (Homo sapiens) (UniProt P18146); assay: Activation of Egr1 in human AGS cells assessed as increase in cleaved caspase-3 level at 100 uM by Western blot analysis; format: cell-based
[41] = tested on: AGS; assay: Cytotoxicity against human AGS cells assessed as reduction in cell viability after 6 hrs by MTT assay; format: functional, cell-based
[42] = tested on: AGS; assay: Cell cycle arrest in human AGS cells assessed as accumulation at S phase at 25 uM after 6 hrs by propidium iodide staining-based flow cytometric analysis (reference value: 21.40 +/- 2.87%); format: functional
[43] = tested on: AGS; assay: Cytotoxicity against human AGS cells assessed as cell viability at 100 uM after 6 hrs by MTT assay in presence of si-Egr1; format: functional, cell-based
[44] = tested on: AGS; assay: Cell cycle arrest in human AGS cells assessed as accumulation at S phase at 12.5 uM after 6 hrs by propidium iodide staining-based flow cytometric analysis (reference value: 21.40 +/- 2.87%); format: functional
[45] = tested on: AGS; assay: Cytotoxicity against human AGS cells assessed as cell viability at 100 uM after 6 hrs by MTT assay; format: functional, cell-based
[46] = target: Early growth response protein 1 (Homo sapiens) (UniProt P18146); assay: Activation of Egr1 in human AGS cells assessed as increase in intracellular accumulation of reactive oxygen species at 100 uM by H2DCFDA probe-based flow cytometric analysis relative to control; format: cell-based
[47] = target: Early growth response protein 1 (Homo sapiens) (UniProt P18146); assay: Activation of Egr1 in human AGS cells assessed as induction of p21 promoter activity by ChIP assay; format: cell-based
[48] = tested on: AGS; assay: Cell cycle arrest in human AGS cells assessed as accumulation at G0/G1 phase at 50 uM after 6 hrs by propidium iodide staining-based flow cytometric analysis (reference value: 52.82 +/- 2.87%); format: functional
[49] = tested on: AGS; assay: Upregulation of Egr1 mRNA expression in human AGS cells by RT-qPCR analysis; format: functional, cell-based

COC(=O)C1=CO[C@@H](O)[C@@H]2C(CO)=CC[C@H]12 [GENIPIN]
Activity [1]: Dose-dependent effect | Activity [2]: 36.88% | Activity [3]: Dose-dependent effect | Activity [4]: 42.33% | Activity [5]: Active | Activity [6]: inactive | Activity [7]: 33.53% | Activity [8]: 48.45% | Activity [9]: Dose-dependent effect | Activity [10]: Active | Activity [11]: inactive | Activity [12]: Active | Activity [13]: 28.54% | Activity [14]: Non-toxic | Activity [15]: Non-toxic | Activity [16]: 26.34% | Activity [17]: inactive | Activity [18]: 33% | Activity [19]: Dose-dependent effect | Activity [20]: 27.48% | Activity [21]: 30.53% | Activity [22]: Active | Activity [23]: inactive | Activity [24]: inactive | Activity [25]: inactive | Activity [26]: Dose-dependent effect | Activity [27]: Active | Activity [28]: Dose-dependent effect | Activity [29]: Dose-dependent effect | Activity [30]: Active | Activity [31]: Dose-dependent effect | Activity [32]: inactive | Activity [33]: Active | Activity [34]: Non-toxic | Activity [35]: Non-toxic | Activity [36]: Dose-dependent effect | Activity [37]: Active | Activity [38]: inactive | Activity [39]: Non-toxic | Activity [40]: Active | Activity [41]: Dose-dependent effect | Activity [42]: 24.66% | Activity [43]: inactive | Activity [44]: 22.67% | Activity [45]: Active | Activity [46]: Active | Activity [47]: Dose-dependent effect | Activity [48]: 35.97% | Activity [49]: Dose-dependent effect
